Where two headings read alike, the source gives them in different places.
Tests used:
p38-alpha = assay: KINOMEscan; type: binding; settings: 1000 nM
[1] = test system: NK cells co-seeded with Mino cells; assay: IFN-γ secretion ELISA, NK cells co-cultured with Mino cells in presence of Rituximab; type: cell-based, human; settings: Mino co-culture; 0.1 to 3 μM
HIPK4 = assay: KINOMEscan; type: binding; settings: 1000 nM
ACVR2B = assay: KINOMEscan; type: binding; settings: 1000 nM
YANK1 = assay: KINOMEscan; type: binding; settings: 1000 nM
NEK10 = assay: KINOMEscan; type: binding; settings: 1000 nM
HIPK2 = assay: KINOMEscan; type: binding; settings: 1000 nM
ERK3 = assay: KINOMEscan; type: binding; settings: 1000 nM
PHKG2 = assay: KINOMEscan; type: binding; settings: 1000 nM
ASK2 = assay: KINOMEscan; type: binding; settings: 1000 nM
PRKD2 = assay: KINOMEscan; type: binding; settings: 1000 nM
[2] = test system: RPS6KA4(Kin.Dom.2-C-terminal); assay: KINOMEscan; type: binding; settings: 1000 nM
CAMKK2 = assay: KINOMEscan; type: binding; settings: 1000 nM
MARK1 = assay: KINOMEscan; type: binding; settings: 1000 nM
[3] = test system: RPS6KA4(Kin.Dom.1-N-terminal); assay: KINOMEscan; type: binding; settings: 1000 nM
FYN = assay: KINOMEscan; type: binding; settings: 1000 nM
PIK4CB = assay: KINOMEscan; type: binding; settings: 1000 nM
GRK4 = assay: KINOMEscan; type: binding; settings: 1000 nM
MKNK1 = assay: KINOMEscan; type: binding; settings: 1000 nM
INSR = assay: KINOMEscan; type: binding; settings: 1000 nM
ACVR1B = assay: KINOMEscan; type: binding; settings: 1000 nM
PCTK2 = assay: KINOMEscan; type: binding; settings: 1000 nM
LZK = assay: KINOMEscan; type: binding; settings: 1000 nM
AKT2 = assay: KINOMEscan; type: binding; settings: 1000 nM
WEE2 = assay: KINOMEscan; type: binding; settings: 1000 nM
PIP5K2C = assay: KINOMEscan; type: binding; settings: 1000 nM
ACVR2A = assay: KINOMEscan; type: binding; settings: 1000 nM
BMX = target: T1, BMX (Homo sapiens, UniProt P51813); assay: KINOMEscan; type: binding; settings: 1000 nM
T1 construct: purchased Invitrogen (Carlsbad, CA, USA)
T1 sequence (P51813 1-675): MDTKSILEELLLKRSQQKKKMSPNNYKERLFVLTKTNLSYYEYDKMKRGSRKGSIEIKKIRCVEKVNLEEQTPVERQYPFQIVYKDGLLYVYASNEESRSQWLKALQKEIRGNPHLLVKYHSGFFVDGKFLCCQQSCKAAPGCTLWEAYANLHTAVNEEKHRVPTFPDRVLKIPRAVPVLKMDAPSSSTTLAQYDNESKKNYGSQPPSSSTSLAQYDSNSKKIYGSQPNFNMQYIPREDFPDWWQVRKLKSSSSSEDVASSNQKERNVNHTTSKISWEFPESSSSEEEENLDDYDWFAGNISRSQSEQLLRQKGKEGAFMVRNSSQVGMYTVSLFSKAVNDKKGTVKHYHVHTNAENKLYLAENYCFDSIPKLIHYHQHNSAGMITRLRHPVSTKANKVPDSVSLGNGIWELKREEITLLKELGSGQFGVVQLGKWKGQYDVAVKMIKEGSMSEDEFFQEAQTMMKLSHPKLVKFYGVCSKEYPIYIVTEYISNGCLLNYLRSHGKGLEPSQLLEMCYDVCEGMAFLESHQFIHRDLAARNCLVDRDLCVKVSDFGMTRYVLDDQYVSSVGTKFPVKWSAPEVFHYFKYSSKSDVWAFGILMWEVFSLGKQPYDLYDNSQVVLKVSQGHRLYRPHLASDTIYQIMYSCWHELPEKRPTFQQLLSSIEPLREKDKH

NIM1 = assay: KINOMEscan; type: binding; settings: 1000 nM
PIK3CB = assay: KINOMEscan; type: binding; settings: 1000 nM
[4] = in vivo pharmacokinetic study; design: species or system rats; settings: male, Sprague-Dawley, rat, plasma; for MRT inf: read-out: MRT (0- ∞)
LKB1 = assay: KINOMEscan; type: binding; settings: 1000 nM
TNK2 = assay: KINOMEscan; type: binding; settings: 1000 nM
FAK = assay: KINOMEscan; type: binding; settings: 1000 nM
[5] = test system: ABL1(H396P)-phosphorylated; assay: KINOMEscan; type: binding; settings: 1000 nM
[6] = test system: RSK3(Kin.Dom.2-C-terminal); assay: KINOMEscan; type: binding; settings: 1000 nM
[7] = test system: NK cells co-seeded with SK-OV-3 cells; assay: IFN-γ secretion ELISA, NK cells co-cultured with SK-OV-3 cells in presence of Herceptin; type: cell-based, human; settings: SK-OV-3 co-culture; 0.1 to 3 μM
Description: Peripheral blood mononuclear cells (PBMC) were separated from the blood of healthy donors by Ficoll density gradient centrifugation (Histopaque-1077, Sigma-Aldrich). Cells were enriched using a MACS® human NK cell negative-selection isolation kit (Miltenyi Biotec, Germany) according to the manufacturer’s instructions. Purified NK cells were cultured with 1000U/ml IL2 for 48h. […] The concentrations of interferon (IFN)-γ in cell culture supernatants obtained from three independent experiments were detected using commercial ELISA kits (absin, #abs510007), according to the manufacturer’s instructions. The human IFN-γ kit sensitivity was 7.8 pg/ml.

CDK4-cyclinD3 = assay: KINOMEscan; type: binding; settings: 1000 nM
CSNK2A1 = assay: KINOMEscan; type: binding; settings: 1000 nM
NEK4 = assay: KINOMEscan; type: binding; settings: 1000 nM
TAOK2 = assay: KINOMEscan; type: binding; settings: 1000 nM

For `C=CC(=O)Nc1cc(Nc2cc(-c3cccc(NC(=O)c4cc5c(s4)CCCC5)c3C)cn(C)c2=O)ccc1N1CCN(CC)CC1` [CHMFL-BTK-85], the “Percent Control” value (p38-alpha) was 93%, the “inhibition of Rituximab-induced IFN-γ secretion in NK cells” value [1] was “no apparent inhibition” and the “Percent Control” value (HIPK4) was 91%. The “Percent Control” value (ACVR2B) was 99%, the “Percent Control” value (YANK1) was 100% and the “Percent Control” value (NEK10) was 100%. For the same compound, the “Percent Control” value (HIPK2) was 100%, the “Percent Control” value (ERK3) was 100% and the “Percent Control” value (PHKG2) was 100%. The “Percent Control” value (ASK2) was 100%, the “Percent Control” value (PRKD2) was 100% and the “Percent Control” value [2] was 100%. The “Percent Control” value (CAMKK2) was 100%, the “Percent Control” value (MARK1) was 100% and the “Percent Control” value [3] was 87%. The “Percent Control” value (FYN) was 74%, the “Percent Control” value (PIK4CB) was 100% and the “Percent Control” value (GRK4) was 88%. The “Percent Control” value (MKNK1) was 100%, the “Percent Control” value (INSR) was 96% and the “Percent Control” value (ACVR1B) was 95%. The “Percent Control” value (PCTK2) was 100%, the “Percent Control” value (LZK) was 100% and the “Percent Control” value (AKT2) was 88%. The “Percent Control” value (WEE2) was 96%, the “Percent Control” value (PIP5K2C) was 85% and the “Percent Control” value (ACVR2A) was 97%. For the same compound, the percent of control binding at 1 µM (BMX) was 59%, the “Percent Control” value (NIM1) was 100% and the “Percent Control” value (PIK3CB) was 94%. For the same compound, the AUC(0-inf) ([4]; iv, Rats, I.V. 1mg/kg) was 766 ± 261 ng·h/mL, the AUC(0-t) ([4]; iv, Rats, I.V. 1mg/kg) was 747 ± 263 ng·h/mL and the Cmax ([4]; iv, Rats, I.V. 1mg/kg) was 1080 ± 390 ng/mL. It also gave a Tmax ([4]; iv, Rats, I.V. 1mg/kg) of 0.02 h, a half-life ([4]; iv, Rats, I.V. 1mg/kg) of 1.6 ± 0.3 h and an MRT inf ([4]; iv, Rats, I.V. 1mg/kg) of 1.6 ± 0.2 h. The AUC(0-inf) ([4]; po, Rats, P.O. 10mg/kg) was 2160 ± 474 ng·h/mL, the Cmax ([4]; po, Rats, P.O. 10mg/kg) was 296 ± 67 ng/mL and the Tmax ([4]; po, Rats, P.O. 10mg/kg) was 6 h. It also gave a bioavailability ([4]; po, Rats, P.O. 10mg/kg) of 29%, a half-life ([4]; po, Rats, P.O. 10mg/kg) of 2.9 h and an MRT inf ([4]; po, Rats, P.O. 10mg/kg) of 6.5 ± 0.1 h. For the same compound, the AUC(0-t) ([4]; rats, oral administration at 10 mg/kg) was 2140 ng·h/mL, the “Percent Control” value (LKB1) was 92% and the “Percent Control” value (TNK2) was 64%. For the same compound, the “Percent Control” value (FAK) was 99%, the “Percent Control” value [5] was 85% and the “Percent Control” value [6] was 79%. For the same compound, the “inhibition of Herceptin-induced IFN-γ secretion in NK cells” value [7] was “no apparent inhibition”, the “Percent Control” value (CDK4-cyclinD3) was 88% and the “Percent Control” value (CSNK2A1) was 94%. For the same compound, the “Percent Control” value (NEK4) was 100% and the “Percent Control” value (TAOK2) was 96%.

Source: PMC7490411 (Signal Transduction and Targeted Therapy, 2020)
